Experimental findings from US20220340597A1, “HEXAHYDRO-1H-PYRAZINO[1,2-A]PYRAZINE COMPOUNDS FOR THE TREATMENT OF AUTOIMMUNE DISEASE” (Hoffmann-La Roche Inc., priority 2019, published 2022) are described below.

Each structure is given as a SMILES string.

The target of this test is T1, human TLR9 (Homo sapiens, UniProt Q9NR96).
T1 construct: host or cells: HEK293 (HEK-Blue hTLR9)
T1 sequence (Q9NR96 26-1032): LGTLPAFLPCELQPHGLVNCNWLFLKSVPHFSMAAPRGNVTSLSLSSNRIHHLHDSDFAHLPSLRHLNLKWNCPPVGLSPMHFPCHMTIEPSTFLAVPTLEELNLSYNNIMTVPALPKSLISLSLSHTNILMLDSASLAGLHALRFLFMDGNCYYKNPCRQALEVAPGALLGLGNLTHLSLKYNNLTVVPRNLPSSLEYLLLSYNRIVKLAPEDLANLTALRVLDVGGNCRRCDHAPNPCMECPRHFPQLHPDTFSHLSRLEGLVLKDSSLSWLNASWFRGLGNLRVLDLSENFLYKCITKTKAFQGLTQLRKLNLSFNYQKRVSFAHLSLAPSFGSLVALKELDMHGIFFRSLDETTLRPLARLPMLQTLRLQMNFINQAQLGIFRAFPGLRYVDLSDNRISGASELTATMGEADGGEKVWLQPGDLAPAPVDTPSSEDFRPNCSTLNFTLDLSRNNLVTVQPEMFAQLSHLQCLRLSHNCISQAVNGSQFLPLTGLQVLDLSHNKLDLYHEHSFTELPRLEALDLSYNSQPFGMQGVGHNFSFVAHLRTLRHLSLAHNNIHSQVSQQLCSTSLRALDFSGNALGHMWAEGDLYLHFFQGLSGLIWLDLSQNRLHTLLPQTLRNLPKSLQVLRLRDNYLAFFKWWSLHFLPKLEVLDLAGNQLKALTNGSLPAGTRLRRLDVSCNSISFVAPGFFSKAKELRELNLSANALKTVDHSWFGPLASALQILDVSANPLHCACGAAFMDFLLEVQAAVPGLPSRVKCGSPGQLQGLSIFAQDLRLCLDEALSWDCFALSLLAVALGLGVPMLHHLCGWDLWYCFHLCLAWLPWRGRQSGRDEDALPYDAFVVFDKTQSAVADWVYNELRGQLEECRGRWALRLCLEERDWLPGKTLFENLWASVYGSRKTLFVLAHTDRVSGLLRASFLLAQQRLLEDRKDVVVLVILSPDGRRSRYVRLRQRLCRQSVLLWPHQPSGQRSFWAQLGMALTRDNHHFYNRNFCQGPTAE
The test can be described thus: HEK293-Blue-hTLR-9 cells assay. It is filed as cell-based. The following applies: HEK293-Blue-hTLR9 cells, ODN2006 stimulation, 20 hrs, SEAP reporter; read-out: HEK/hTLR9 IC50.
Turning to `[2H]c1ccc2c(N3C[C@@H]4CN(c5ncc(N6C[C@H]7NCCO[C@@H]7C6)cc5C)CCN4[C@H](C)C3)ccc(C#N)c2n1` [Example 100, 5-[(4R,9aR)-8-[5-[(4aR,7aR)-3,4,4a,5,7,7a-hexahydro-2H-pyrrolo[3,4-b][1,4]oxazin-6-yl]-3-methyl-2-pyridyl]-4-methyl-3,4,6,7,9,9a-hexahydro-1H-pyrazino[1,2-a]pyrazin-2-yl]-2-deuterio-quinoline-8-carbonitrile], the IC50 stood at 173 nM.

As to `[2H]c1ccc2c(N3C[C@@H]4CN(Cc5ccc(N[C@H]6CNC[C@H]6F)nc5C)CCN4[C@H](C)C3)ccc(C#N)c2n1` [Example 82, 5-[(4R,9aS)-8-[[6-[[(3S,4R)-4-fluoropyrrolidin-3-yl]amino]-2-methyl-3-pyridyl]methyl]-4-methyl-3,4,6,7,9,9a-hexahydro-JH-pyrazino[1,2-a]pyrazin-2-yl]-2-deuterio-quinoline-8-carbonitrile], the IC50 came out at 41 nM.

As to `[2H]c1ccc2c(N3C[C@@H]4CN(Cc5ccc(N6C[C@H]7NCCO[C@@H]7C6)nc5C)CCN4[C@H](C)C3)ccc(C#N)c2n1` [Example 98, 5-[(4R,9aS)-8-[[6-[(4aR,7aR)-3,4,4a,5,7,7a-hexahydro-2H-pyrrolo[3,4-b][1,4]oxazin-6-yl]-2-methyl-3-pyridyl]methyl]-4-methyl-3,4,6,7,9,9a-hexahydro-1H-pyrazino[1,2-a]pyrazin-2-yl]-2-deuterio-quinoline-8-carbonitrile], the IC50 turned out to be 58 nM.

Take `C[C@@H]1CN(c2ccc(C#N)c3ncccc23)C[C@@H]2CN(Cc3ccc4c(c3)CNCC4)CCN21` (relative stereo) [Example 1]: the IC50 was 58 nM.

Regarding `Cc1nc(N2CCN[C@H](C)C2)ccc1CN1CCN2[C@@H](C1)CN(c1ccc(C#N)c3ncccc13)C[C@H]2C` [Example 86, 5-[(4R,9aS)-4-methyl-8-[[2-methyl-6-[(3R)-3-methylpiperazin-1-yl]-3-pyridyl]methyl]-3,4,6,7,9,9a-hexahydro-1H-pyrazino[1,2-a]pyrazin-2-yl]quinoline-8-carbonitrile], the IC50 was 62 nM.

As to `[2H]c1ccc2c(N3C[C@@H]4CN(Cc5ccc(N6C[C@@H]7C[C@H]6CN7)nc5C)CCN4[C@H](C)C3)ccc(C#N)c2n1` [Example 92, 5-[(4R,9aS)-8-[[6-[(1S,4S)-2,5-diazabicyclo[2.2.1]heptan-2-yl]-2-methyl-3-pyridyl]methyl]-4-methyl-3,4,6,7,9,9a-hexahydro-1H-pyrazino[1,2-a]pyrazin-2-yl]-2-deuterio-quinoline-8-carbonitrile], the IC50 came out at 34 nM.

With `C[C@@H]1CN(c2ccc(C#N)c3ncccc23)C[C@@H]2CN(Cc3ccnc(N4CCNCC4)c3)CCN21` (relative stereo) [Example 3], the IC50 amounted to 110 nM.

In the case of `[2H]c1ccc2c(N3C[C@@H]4CN(CCc5ccc(N6CC[C@@](C)(N)C6)nc5)CCN4[C@H](C)C3)ccc(C#N)c2n1` [Example 84, 5-[(4R,9aS)-8-[2-[6-[(3R)-3-amino-3-methyl-pyrrolidin-1-yl]-3-pyridyl]ethyl]-4-methyl-3,4,6,7,9,9a-hexahydro-1H-pyrazino[1,2-a]pyrazin-2-yl]-2-deuterio-quinoline-8-carbonitrile], the IC50 was under 32 nM.

On to `[2H]c1ccc2c(N3C[C@@H]4CN(Cc5ccc(N6CC7(CN(C)C7)C6)nc5C)CCN4[C@H](C)C3)ccc(C#N)c2n1` [Example 80, 5-[(4R,9aS)-4-methyl-8-[[2-methyl-6-(6-methyl-2,6-diazaspiro[3.3]heptan-2-yl)-3-pyridyl]methyl]-3,4,6,7,9,9a-hexahydro-1H-pyrazino[1,2-a]pyrazin-2-yl]-2-deuterio-quinoline-8-carbonitrile], for which the IC50 is under 32 nM.

Regarding `[2H]c1ccc2c(N3C[C@@H]4CN(c5ncc(N6CC[C@@](C)(N)C6)cc5C)CCN4[C@H](C)C3)ccc(C#N)c2n1` [Example 97, 5-[(4R,9aR)-8-[5-[(3R)-3-amino-3-methyl-pyrrolidin-1-yl]-3-methyl-2-pyridyl]-4-methyl-3,4,6,7,9,9a-hexahydro-1H-pyrazino[1,2-a]pyrazin-2-yl]-2-deuterio-quinoline-8-carbonitrile], the IC50 came out at 140 nM.

With `[2H]c1ccc2c(N3C[C@@H]4CN(Cc5nc(N6CCNCC6)ccc5C)CCN4[C@H](C)C3)ccc(C#N)c2n1` [Example 88, 5-[(4R,9aS)-4-methyl-8-[(3-methyl-6-piperazin-1-yl-2-pyridyl)methyl]-3,4,6,7,9,9a-hexahydro-1H-pyrazino[1,2-a]pyrazin-2-yl]-2-deuterio-quinoline-8-carbonitrile], the IC50 worked out at 47 nM.

Consider `[2H]c1ccc2c(N3C[C@@H]4CN(Cc5cnc(N6CCNCC6)cc5C)CCN4[C@H](C)C3)ccc(C#N)c2n1` [Example 87, 5-[(4R,9aS)-4-methyl-8-[(4-methyl-6-piperazin-1-yl-3-pyridyl)methyl]-3,4,6,7,9,9a-hexahydro-1H-pyrazino[1,2-a]pyrazin-2-yl]-2-deuterio-quinoline-8-carbonitrile], for which the IC50 stood at 52 nM.

Consider `[2H]c1ccc2c(N3C[C@@H]4CN(c5ncc(N6C[C@@H](N)[C@H](OC)C6)cc5C)CCN4[C@H](C)C3)ccc(C#N)c2n1` [Example 99, 5-[(4R,9aR)-8-[5-[(3R,4R)-3-amino-4-methoxy-pyrrolidin-1-yl]-3-methyl-2-pyridyl]-4-methyl-3,4,6,7,9,9a-hexahydro-1H-pyrazino[1,2-a]pyrazin-2-yl]-2-deuterio-quinoline-8-carbonitrile], for which the IC50 came out at 155 nM.

With `Cc1cc(N2CCNCC2)cnc1N1CCN2[C@@H](C1)CN(c1cc(=O)n(C)c3ncccc13)C[C@H]2C` [Example 93, 4-[(4R,9aR)-4-methyl-8-(3-methyl-5-piperazin-1-yl-2-pyridyl)-3,4,6,7,9,9a-hexahydro-1H-pyrazino[1,2-a]pyrazin-2-yl]-1-methyl-1,8-naphthyridin-2-one], the IC50 stood at 186 nM.

As for `[2H]c1ccc2c(N3C[C@@H]4CN(Cc5ccc(N6CC[C@@](C)(N)C6)nc5C)CCN4[C@H](C)C3)ccc(C#N)c2n1` [Example 81, 5-[(4R,9aS)-8-[[6-[(3R)-3-amino-3-methyl-pyrrolidin-1-yl]-2-methyl-3-pyridyl]methyl]-4-methyl-3,4,6,7,9,9a-hexahydro-1H-pyrazino[1,2-a]pyrazin-2-yl]-2-deuterio-quinoline-8-carbonitrile], the IC50 was under 32 nM.

Turning to `[2H]c1ccc2c(N3C[C@@H]4CN(Cc5ccc(N6CC7CNCC(C6)O7)nc5C)CCN4[C@H](C)C3)ccc(C#N)c2n1` [Example 83, 5-[(4R,9aS)-4-methyl-8-[[2-methyl-6-(9-oxa-3,7-diazabicyclo[3.3.1]nonan-3-yl)-3-pyridyl]methyl]-3,4,6,7,9,9a-hexahydro-1H-pyrazino[1,2-a]pyrazin-2-yl]-2-deuterio-quinoline-8-carbonitrile], the IC50 was 51 nM.

Regarding `[2H]c1ccc2c(N3C[C@@H]4CN(Cc5ccc(N6CC7CCC(C6)N7)nc5C)CCN4[C@H](C)C3)ccc(C#N)c2n1` [Example 91, 5-[(4R,9aS)-8-[[6-(3,8-diazabicyclo[3.2.1]octan-3-yl)-2-methyl-3-pyridyl]methyl]-4-methyl-3,4,6,7,9,9a-hexahydro-1H-pyrazino[1,2-a]pyrazin-2-yl]-2-deuterio-quinoline-8-carbonitrile], the IC50 came to 45 nM.

On to `[2H]c1ccc2c(N3C[C@@H]4CN(c5ncc(N6C[C@@H](N)[C@@H](OC)C6)cc5C)CCN4[C@H](C)C3)ccc(C#N)c2n1` [Example 96, 5-[(4R,9aR)-8-[5-[(3R,4S)-3-amino-4-methoxy-pyrrolidin-1-yl]-3-methyl-2-pyridyl]-4-methyl-3,4,6,7,9,9a-hexahydro-1H-pyrazino[1,2-a]pyrazin-2-yl]-2-deuterio-quinoline-8-carbonitrile], for which the IC50 came out at 189 nM.

In the case of `Cc1nc(N2CCNC[C@@H]2C)ccc1CN1CCN2[C@@H](C1)CN(c1ccc(C#N)c3ncccc13)C[C@H]2C` [Example 85, 5-[(4R,9aS)-4-methyl-8-[[2-methyl-6-[(2S)-2-methylpiperazin-1-yl]-3-pyridyl]methyl]-3,4,6,7,9,9a-hexahydro-1H-pyrazino[1,2-a]pyrazin-2-yl]quinoline-8-carbonitrile], the IC50 is 97 nM.

For `[2H]c1ccc2c(N3C[C@@H]4CN(c5ncc(N6C[C@@H]7C[C@H]6CN7)cc5C)CCN4[C@H](C)C3)ccc(C#N)c2n1` [Example 95, 5-[(4R,9aR)-8-[5-[(1S,4S)-2,5-diazabicyclo[2.2.1]heptan-2-yl]-3-methyl-2-pyridyl]-4-methyl-3,4,6,7,9,9a-hexahydro-1H-pyrazino[1,2-a]pyrazin-2-yl]-2-deuterio-quinoline-8-carbonitrile], the IC50 amounted to 142 nM.
